Reference: patent US9271948B2, “Agent for improving vesicourethral dyssynergia” (TAIHO PHARMACEUTICAL CO., LTD., priority 2013, dated 2016)

Columns and labels:
Format in all cases: in vivo
[1] = system: dysuria model rat (STZ-treated female Wistar rats); assay: Effects of cholinergic agent and α1 blocker on vesicourethral dyssynergia of dysuria model rat (Comparative Example 2); settings: STZ model four weeks after preparation; bethanechol 1 mg/kg i.v., tamsulosin 0.3 mg/kg i.v.; under urethane anesthesia; vs control (physiological saline)
Procedure: The effects of a cholinergic agent (detrusor contracting agent: bethanechol) and an al blocker (urethra relaxation agent: tamsulosin) on vesicourethral dyssynergia were evaluated.
The dysuria models in the present example were prepared by treating 10-week-old female Wistar rats with STZ (65 mg/kg, i.p.). The Sham group was prepared by treating the rats with a citric acid buffer solution instead of STZ. Four weeks after the preparation of the models, the intravesical and urethral pressure was measured under urethane anesthesia, thereby evaluating the effects of the test drugs (vehicle: physiological saline solution, bethanechol 1 mg/kg i.v., and tamsulosin 0.3 mg/kg i.v.) with regard to the cooperation of the bladder and the urethra.

[2] = system: dysuria model rat (STZ-treated female Wistar rats); assay: Effect on maximum voiding quantity in dysuria model rat (Test Example 2); settings: 30 mg/kg p.o. twice a day for four weeks, under urethane anesthesia, Sham 1.45 ± 0.14, Control 2.25 ± 0.68, *p < 0.05 vs. control
Procedure: The dysuria models in this example were prepared in the same manner as in Test Example 1 by treating 10-week-old female Wistar rats with STZ (65 mg/kg, i.p.). The test drugs (vehicle: 6% Gelucire, Compound 1 of the present invention 30 mg/kg) were orally administered to each group after four weeks from the preparation of the models (at a time dysuria is assumed to be developed) twice a day for four weeks. On the day following the final administration, the maximum voiding quantity was measured under urethane anesthesia.

[3] = system: dysuria model rat (STZ-treated female Wistar rats); assay: Effect of ameliorating vesicourethral dyssynergia in dysuria model rat (Test Example 1); settings: STZ 65 mg/kg i.p. model; 30 mg/kg p.o. twice a day for four weeks starting four weeks after model preparation; measured under urethane anesthesia; control (6% Gelucire) 3.7±0.7
Procedure: The effect of 3-(15-hydroxypentadecyl)-2,4,4-trimethyl-2-cyclohexene-1-one (hereinafter referred to as “Compound 1 of the present invention”) on vesicourethral dyssynergia was evaluated.
The dysuria models in this example were prepared by treating 10-week-old female Wistar rats with streptozotocin (hereinafter referred to as STZ; in an amount of 65 mg/kg, i.p.). The Sham group was prepared by treating the rats with a citric acid buffer solution instead of STZ. The test drugs (vehicle: 6% Gelucire, Compound 1 of the present invention 30 mg/kg) were orally administered to each group after four weeks from the preparation of the models (at a time dysuria is assumed to be developed) twice a day for four weeks. On the day following the final administration, the intravesical and urethral pressure was measured under urethane anesthesia, thereby evaluating the cooperation of the bladder and the urethra.
Further, in contrast to the control group receiving vehicle (6% Gelucire) having a time lag of 3.7±0.7 seconds, the time lag in the group receiving Compound 1 of the present invention was reduced to 2.0±0.4 seconds, showing a significant effect of ameliorating vesicourethral dyssynergia.

[4] = system: model rat having spinal cord injury (female Wistar rats); assay: Effect on voiding dysfunction based on vesicourethral dyssynergia in spinal cord injury model rat (Test Example 3); settings: spinal cord injury model (Th8-9); 250 mg/kg p.o. once a day for four weeks; vs control group (6% Gelucire)
Procedure: The effect of Compound 1 of the present invention on dysuria was evaluated using a model rat having spinal cord injury, which is a typical disease causing dysuria due to vesicourethral dyssynergia.
The dysuria models in this example were prepared by placing a 40 g weight on the spinal cord in the eighth to ninth thoracic vertebrae (Th8-9) of 7-week-old female Wistar rats for 30 minutes.
The test drugs (vehicle: 6% Gelucire, Compound 1 of the present invention 250 mg/kg) were orally administered to each group from the day following the preparation of the models once a day for four weeks. On the day following the final administration, cystometry was performed in a wakeful state, thereby evaluating the voiding function (micturition efficiency).

SMILES | effect on extension of the time lag between the bladder contraction and the urethra relaxation [1] | Maximum voided volme [2] | time lag between the bladder contraction and the urethra relaxation [3] [s] | micturition efficiency (cystometry in a wakeful state) [4]
CC(C[N+](C)(C)C)OC(N)=O (centres unmarked) [Bethanechol, bethanechol] | no effects | – | – | –
CC1=C(CCCCCCCCCCCCCCCO)C(C)(C)CCC1=O [Compound 1 of the present invention, 3-(15-hydroxypentadecyl)-2,4,4-trimethyl-2-cyclohexene-1-one] | – | 4.44 ± 0.85* mL | 2.0 ± 0.4 | significant increase in micturition efficiency
CCOc1ccccc1OCCN[C@H](C)Cc1ccc(OC)c(S(N)(=O)=O)c1 [tamsulosin] | no effects | – | – | –
